Results taken from USRE47302E1 (ONYX THERAPEUTICS INC., priority 2013, dated 2019).
In brackets after ≈: the same amount, converted by molar mass.

Tests used:
[1] = target: T1, immunoproteasome subunit LMP7 (Homo sapiens, UniProt P28062); assay: Proteasome active-site ELISA (ProCISE), LMP7, MOLT-4 lysate; assay type: biochemical; details: MOLT4 lysate, 1 h continuous treatment, 25° C.
T1 construct: Lysate from the human acute lymphoblastic leukemia cell line, MOLT-4; endogenous in cells; host or cells: MOLT-4
Outline: (§1)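 MOLT-4 cell lysate treated 1 h at 25 °C with compound; probe-bound subunits denatured, pulled down on streptavidin beads and detected with subunit-specific antibodies plus HRP chemiluminescence.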

[2] = Solubility pH 7; details: pH 7, aqueous buffer
[3] = target: T2, proteasome subunit β5 (beta5) (Homo sapiens, UniProt P28074); assay: Proteasome active-site ELISA (ProCISE), beta5, MOLT-4 lysate; assay type: biochemical; details: MOLT4 lysate, human, 1 h continuous treatment, 25° C.
T2 construct: Lysate from the human acute lymphoblastic leukemia cell line, MOLT-4; endogenous in cells; host or cells: MOLT-4
Outline: as §1

[4] = target: human 20S immunoproteasome (i20S) (Homo sapiens, UniProt P28062); assay: 20S proteasome assay, chymotrypsin-like activity (succinyl-Leu-Leu-Val-Tyr-AMC), i20S; assay type: biochemical; details: LLVY substrate, 1 h continuous
Text: (§2) Assay buffer consisted of TE buffer [20 mmol/L Tris (pH 8.0), 0.5 mmol/L EDTA] with (20S) or without (cell lysate) 0.03% SDS. Reactions were initiated by enzyme or lysate addition and monitored for AMC product formation at 27jC with a plate-based spectofluorometer (Tecan).

[5] = target: human constitutive 20S proteasome (c20S) (Homo sapiens, UniProt P28074); assay: 20S proteasome assay, chymotrypsin-like activity (succinyl-Leu-Leu-Val-Tyr-AMC), c20S; assay type: biochemical; details: LLVY substrate, 1 h continuous
Text: as §2

Row | IC50 [1] [nM] | solubility [2] [µg/mL] | IC50 [3] [nM] | IC50 [4] [nM] | IC50 [5] [nM] | SMILES
1 | 208 | 3270 (≈ 5780 µM) | 4170 | 278 | 2430 | COc1ccc(C[C@H](NC(=O)CNC(=O)CN2CCOCC2)C(=O)N[C@@H](Cc2ccccc2)C(=O)[C@@]2(C)CO2)cc1 [Compound C-1153, (S)-3-(4-methoxyphenyl)-N-((S)-1-((R)-2-methyloxiran-2-yl)-1-oxo-3-phenylpropan-2-yl)-2-(2-(2-morpholinoacetamido)acetamido)propanamide]
2 | 113 | 19.3 (≈ 35.6 µM) | 1900 | 144 | 3540 | COc1ccc(C[C@H](NC(=O)[C@@H](C)NC(=O)C2CCCC2)C(=O)N[C@@H](CC2CCCC2)C(=O)[C@@]2(C)CO2)cc1 [Compound C-1021, N-((R)-1-(((S)-1-(((S)-3-cyclopentyl-1-((R)-2-methyloxiran-2-yl)-1-oxopropan-2-yl)amino)-3-(4-methoxyphenyl)-1-oxopropan-2-yl)amino)-1-oxopropan-2-yl)cyclopentanecarboxamide]
3 | 131 | 2860 (≈ 4600 µM) | 805 | 76.5 | 667 | C[C@H](NC(=O)CN1CCOCC1)C(=O)N[C@@H](Cc1ccc(S(N)(=O)=O)cc1)C(=O)N[C@@H](CC1CCCC1)C(=O)[C@@]1(C)CO1 [Compound C-1054, (S)-N-((S)-3-cyclopentyl-1-((R)-2-methyloxiran-2-yl)-1-oxopropan-2-yl)-2-((S)-2-(2-morpholinoacetamido)propanamido)-3-(4-sulfamoylphenyl)propanamide]
4 | 85.1 | 4050 (≈ 6880 µM) | 1110 | 115 | 729 | COc1ccc([C@@H](O)[C@H](NC(=O)[C@H](C)NC(=O)CN2CCOCC2)C(=O)N[C@@H](CC2CCCC2)C(=O)[C@@]2(C)CO2)cc1 [Compound C-1022, (2S,3R)-N-((S)-3-Cyclopentyl-1-((R)-2-methyloxiran-2-yl)-1-oxopropan-2-yl)-3-hydroxy-3-(4-methoxyphenyl)-2-((S)-2-(2-morpholinoacetamido)propanamido)propanamide]
5 | 37.9 | 152 (≈ 250 µM) | 198 | 63.5 | 361 | COc1ccc(C[C@H](NC(=O)[C@H](C)NC(=O)CN2CCC(F)(F)CC2)C(=O)N[C@@H](CC2CCCC2)C(=O)[C@@]2(C)CO2)cc1 [Compound C-1046, (S)-N-((S)-3-cyclopentyl-1-((R)-2-methyloxiran-2-yl)-1-oxopropan-2-yl)-2-((S)-2-(2-(4,4-difluoropiperidin-1-yl)acetamido)propanamido)-3-(4-methoxyphenyl)propanamide]
6 | 116 | 1280 (≈ 2250 µM) | 765 | 53.5 | 277 | C[C@H](NC(=O)CN1CCOCC1)C(=O)N[C@@H](Cc1ccc(C#N)cc1)C(=O)N[C@@H](CC1CCCC1)C(=O)[C@@]1(C)CO1 [Compound C-1050, (S)-3-(4-cyanophenyl)-N-((S)-3-cyclopentyl-1-((R)-2-methyloxiran-2-yl)-1-oxopropan-2-yl)-2-((S)-2-(2-morpholinoacetamido)propanamido)propanamide]
7 | 83.1 | 2730 (≈ 4790 µM) | 926 | 46.2 | 351 | COc1ccc(C[C@H](NC(=O)[C@H](C)NC(=O)CN2CCOCC2)C(=O)N[C@@H](CC2=CCCC2)C(=O)[C@@]2(C)CO2)cc1 [Compound C-1009, (S)-N-((S)-3-(Cyclopent-1-en-1-yl)-1-((R)-2-methyloxiran-2-yl)-1-oxopropan-2-yl)-3-(4-methoxyphenyl)-2-((S)-2-(2-morpholinoacetamido)propanamido)propanamide]
8 | 90.8 | 702 (≈ 1160 µM) | 705 | 45.1 | 978 | C[C@@H](NC(=O)C1CCOCC1)C(=O)N[C@@H](Cc1ccc(S(C)(=O)=O)cc1)C(=O)N[C@@H](CC1CCCC1)C(=O)[C@@]1(C)CO1 [Compound C-1051, N-((R)-1-(((S)-1-(((S)-3-cyclopentyl-1-((R)-2-methyloxiran-2-yl)-1-oxopropan-2-yl)amino)-3-(4-(methylsulfonyl)phenyl)-1-oxopropan-2-yl)amino)-1-oxopropan-2-yl)tetrahydro-2H-pyran-4-carboxamide]
9 | 440 | 1830 (≈ 3360 µM) | 12500 | 232 | 7030 | COc1ccc(C[C@H](NC(=O)[C@@H](C)NC(=O)[C@H]2C[C@H](O)C2)C(=O)N[C@@H](CC2CCCC2)C(=O)[C@@]2(C)CO2)cc1 [Compound C-1041, (1r,3R)-N-((R)-1-(((S)-1-(((S)-3-cyclopentyl-1-((R)-2-methyloxiran-2-yl)-1-oxopropan-2-yl)amino)-3-(4-methoxyphenyl)-1-oxopropan-2-yl)amino)-1-oxopropan-2-yl)-3-hydroxycyclobutanecarboxamide]
10 | 99.6 | 185 (≈ 324 µM) | 695 | 24.4 | 119 | COc1ccc(C[C@H](NC(=O)[C@H](C)NC(=O)CC2CCOCC2)C(=O)N[C@@H](CC2CCCC2)C(=O)[C@@]2(C)CO2)cc1 [Compound C-1010, (S)-N-((S)-3-cyclopentyl-1-((R)-2-methyloxiran-2-yl)-1-oxopropan-2-yl)-3-(4-methoxyphenyl)-2-((S)-2-(2-(tetrahydro-2H-pyran-4-yl)acetamido)propanamido)propanamide]
11 | 11.2 | 220 (≈ 394 µM) | 497 | 7.93 | 201 | COc1ccc(C[C@H](NC(=O)[C@H](C)NC(=O)CN2CCOCC2)C(=O)N[C@@H](CC2CCCC2)C(=O)[C@H]2CO2)cc1 [Compound C-1030, (S)-N-((S)-3-cyclopentyl-1-((R)-oxiran-2-yl)-1-oxopropan-2-yl)-3-(4-methoxyphenyl)-2-((S)-2-(2-morpholinoacetamido)propanamido)propanamide]
12 | 270 | 648 (≈ 1160 µM) | 4540 | 98.9 | 3770 | COc1ccc(C[C@H](NC(=O)[C@@H](C)NC(=O)[C@H]2CCCOC2)C(=O)N[C@@H](CC2CCCC2)C(=O)[C@@]2(C)CO2)cc1 [Compound C-1053, (S)-N-((R)-1-(((S)-1-(((S)-3-cyclopentyl-1-((R)-2-methyloxiran-2-yl)-1-oxopropan-2-yl)amino)-3-(4-methoxyphenyl)-1-oxopropan-2-yl)amino)-1-oxopropan-2-yl)tetrahydro-2H-pyran-3-carboxamide]
13 |  | 4760 (≈ 7670 µM) |  | 707 | 715 | C[C@H](NC(=O)CN1CCOCC1)C(=O)N[C@@H](Cc1cccc(S(C)(=O)=O)c1)C(=O)N[C@@H](CC1CCCC1)C(=O)[C@@]1(C)CO1 [Compound C-1024, (S)-N-((S)-3-cyclopentyl-1-((R)-2-methyloxiran-2-yl)-1-oxopropan-2-yl)-3-(3-(methylsulfonyl)phenyl)-2-((S)-2-(2-morpholinoacetamido)propanamido)propanamide]
14 |  | 153 (≈ 258 µM) |  | 549 | 2630 | COc1ccc(C[C@H](NC(=O)[C@H](C)NC(=O)CN2CCC(F)(F)C2)C(=O)N[C@@H](CC2CCCC2)C(=O)[C@@]2(C)CO2)cc1 [Compound C-1048, (S)-N-((S)-3-cyclopentyl-1-((R)-2-methyloxiran-2-yl)-1-oxopropan-2-yl)-2-((S)-2-(2-(3,3-difluoropyrrolidin-1-yl)acetamido)propanamido)-3-(4-methoxyphenyl)propanamide]
15 |  | 3870 (≈ 6570 µM) |  | 322 | 1880 | COc1ccc([C@H](O)[C@H](NC(=O)[C@H](C)NC(=O)CN2CCOCC2)C(=O)N[C@@H](CC2CCCC2)C(=O)[C@@]2(C)CO2)cc1 [Compound C-1023, (2S,3S)-N-((S)-3-cyclopentyl-1-((R)-2-methyloxiran-2-yl)-1-oxopropan-2-yl)-3-hydroxy-3-(4-methoxyphenyl)-2-((S)-2-(2-morpholinoacetamido)propanamido)propanamide]
16 |  | 1020 (≈ 1750 µM) |  | 289 | 806 | C[C@H](NC(=O)CN1CCOCC1)C(=O)N[C@@H](Cc1c[nH]c2ccccc12)C(=O)N[C@@H](CC1CCCC1)C(=O)[C@@]1(C)CO1 [Compound C-1014, (S)-N-((S)-3-cyclopentyl-1-((R)-2-methyloxiran-2-yl)-1-oxopropan-2-yl)-3-(1H-indol-3-yl)-2-((S)-2-(2-morpholinoacetamido)propanamido)propanamide]
17 |  | 2640 (≈ 4370 µM) |  | 3230 | > 10000 | COc1ccc(C[C@H](NC(=O)[C@H](C)NC(=O)CN2CCOCC2)C(=O)N[C@@H](C[C@H]2CC[C@@H](O)CC2)C(=O)[C@@]2(C)CO2)cc1 [Compound C-1001, (S)-N-((S)-3-((1s,4R)-4-hydroxycyclohexyl)-1-((R)-2-methyloxiran-2-yl)-1-oxopropan-2-yl)-3-(4-methoxyphenyl)-2-((S)-2-(2-morpholinoacetamido)propanamido)propanamide]
18 |  | 24.1 (≈ 37.7 µM) |  | 438 | 707 | COc1ccc(C[C@H](NC(=O)[C@H](C)NC(=O)CN2CCC(C(F)(F)F)CC2)C(=O)N[C@@H](CC2CCCC2)C(=O)[C@@]2(C)CO2)cc1 [Compound C-1047, (S)-N-((S)-3-cyclopentyl-1-((R)-2-methyloxiran-2-yl)-1-oxopropan-2-yl)-3-(4-methoxyphenyl)-2-((S)-2-(2-(4-(trifluoromethyl)piperidin-1-yl)acetamido)propanamido)propanamide]
